Common to all, as to assay: biochemical
Parameters in all cases: KINOMEscan scanMAX active site-directed competition binding assay, percent of control, 468 kinases
What all share (conditions): competition binding, percent of control

The target of one experiment is IRAK3 (Homo sapiens, UniProt Q9Y616). Summed up:
(§1)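 Single-concentration screen (100 μM S-carvone) in a competition binding panel of 468 human kinases (KINOMEscan scanMAX); results given as percent of control, hit cutoff 35%.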

Another experiment addresses SRMS (Homo sapiens, UniProt Q9H3Y6). In short, it runs like this: as §1
The next experiment concerns the target T1, PCTK2 (Homo sapiens, UniProt Q00537).
T1 construct: gene CDK17
In short, it runs like this:
as §1

In a further experiment the target is KIT(V559D,T670I) (Homo sapiens, UniProt P10721, T670I/V559D). In short, it runs like this:
as §1

The next experiment concerns the target PRKCH (Homo sapiens, UniProt P24723). Summed up: as §1
Another experiment has as its target WEE2 (Homo sapiens, UniProt P0C1S8). Summed up:
as §1

In another experiment the target is RIPK2 (Homo sapiens, UniProt O43353). In short, it runs like this: as §1
Chain of RIPK2 (O43353 whole entry): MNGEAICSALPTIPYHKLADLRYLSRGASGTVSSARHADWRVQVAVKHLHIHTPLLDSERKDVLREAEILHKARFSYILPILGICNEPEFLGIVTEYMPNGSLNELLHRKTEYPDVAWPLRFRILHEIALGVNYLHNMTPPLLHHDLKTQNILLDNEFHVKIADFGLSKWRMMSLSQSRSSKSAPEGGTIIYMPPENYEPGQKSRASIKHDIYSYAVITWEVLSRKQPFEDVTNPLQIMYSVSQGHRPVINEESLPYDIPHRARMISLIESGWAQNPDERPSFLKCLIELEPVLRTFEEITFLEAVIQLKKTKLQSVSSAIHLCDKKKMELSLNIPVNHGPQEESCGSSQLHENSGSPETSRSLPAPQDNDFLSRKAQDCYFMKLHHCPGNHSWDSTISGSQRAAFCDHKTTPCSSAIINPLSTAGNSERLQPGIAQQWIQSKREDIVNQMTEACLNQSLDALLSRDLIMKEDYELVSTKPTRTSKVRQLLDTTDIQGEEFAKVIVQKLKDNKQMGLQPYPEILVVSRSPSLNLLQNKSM
Another experiment deals with T2, PIP5K2B (Homo sapiens, UniProt P78356).
T2 construct: gene PIP4K2B
Summed up: as §1

For the next experiment, the target named is EGFR(S752-I759del) (Homo sapiens, UniProt P00533, DEL752-759). Summed up:
as §1

The next experiment deals with CSNK1G1 (Homo sapiens, UniProt Q9HCP0). Summed up:
as §1

The next experiment addresses FLT1 (Homo sapiens, UniProt P17948). Summed up:
as §1

A further experiment deals with MELK (Homo sapiens, UniProt Q14680). In short, it runs like this:
as §1

Another experiment deals with RET(M918T) (Homo sapiens, UniProt P07949, M918T). Summed up:
as §1

For the next experiment, the target named is T3, VPS34 (Homo sapiens, UniProt Q8NEB9).
T3 construct: gene PIK3C3
In short, it runs like this: as §1

The target of another experiment is EPHA8 (Homo sapiens, UniProt P29322). Summed up: as §1
The next experiment concerns the target T4, ERK8 (Homo sapiens, UniProt Q8TD08).
T4 construct: gene MAPK15
In short, it runs like this:
as §1

A further experiment deals with MST1R (Homo sapiens, UniProt Q04912). In short, it runs like this: as §1
Another experiment concerns the target MAK (Homo sapiens, UniProt P20794). Summed up: as §1
The target in the next experiment is GRK4 (Homo sapiens, UniProt P32298). Summed up: as §1
For experiment [1], the target named is T5, ABL1(Y253F)-phosphorylated (Homo sapiens, UniProt P00519, Y253F).
T5 construct: phosphorylated
Summed up:
as §1

For another experiment, the target named is PRKD3 (Homo sapiens, UniProt O94806). In short, it runs like this: as §1
Chain of PRKD3 (O94806 whole entry): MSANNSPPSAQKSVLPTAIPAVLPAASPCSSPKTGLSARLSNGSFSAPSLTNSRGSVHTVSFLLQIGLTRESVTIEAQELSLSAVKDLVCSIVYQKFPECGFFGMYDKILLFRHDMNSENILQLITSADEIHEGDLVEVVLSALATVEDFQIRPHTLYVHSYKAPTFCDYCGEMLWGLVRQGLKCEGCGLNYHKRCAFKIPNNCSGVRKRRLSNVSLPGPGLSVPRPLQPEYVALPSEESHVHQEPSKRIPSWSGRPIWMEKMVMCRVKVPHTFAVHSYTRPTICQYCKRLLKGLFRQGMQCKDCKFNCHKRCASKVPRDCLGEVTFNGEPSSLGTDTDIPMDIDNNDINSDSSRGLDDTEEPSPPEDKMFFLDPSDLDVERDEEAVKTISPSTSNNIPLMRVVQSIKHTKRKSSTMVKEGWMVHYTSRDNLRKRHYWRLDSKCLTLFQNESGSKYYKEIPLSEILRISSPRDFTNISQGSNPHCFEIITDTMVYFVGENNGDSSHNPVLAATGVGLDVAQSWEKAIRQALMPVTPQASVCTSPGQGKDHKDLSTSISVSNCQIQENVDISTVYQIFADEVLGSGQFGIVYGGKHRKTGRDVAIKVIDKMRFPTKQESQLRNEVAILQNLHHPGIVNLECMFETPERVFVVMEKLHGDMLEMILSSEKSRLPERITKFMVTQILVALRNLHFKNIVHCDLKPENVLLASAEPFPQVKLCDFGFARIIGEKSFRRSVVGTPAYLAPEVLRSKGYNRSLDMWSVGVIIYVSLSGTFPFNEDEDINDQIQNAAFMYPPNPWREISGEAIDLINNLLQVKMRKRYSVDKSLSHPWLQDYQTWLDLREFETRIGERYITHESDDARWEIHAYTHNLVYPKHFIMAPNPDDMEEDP

T4 sequence (Q8TD08 whole entry): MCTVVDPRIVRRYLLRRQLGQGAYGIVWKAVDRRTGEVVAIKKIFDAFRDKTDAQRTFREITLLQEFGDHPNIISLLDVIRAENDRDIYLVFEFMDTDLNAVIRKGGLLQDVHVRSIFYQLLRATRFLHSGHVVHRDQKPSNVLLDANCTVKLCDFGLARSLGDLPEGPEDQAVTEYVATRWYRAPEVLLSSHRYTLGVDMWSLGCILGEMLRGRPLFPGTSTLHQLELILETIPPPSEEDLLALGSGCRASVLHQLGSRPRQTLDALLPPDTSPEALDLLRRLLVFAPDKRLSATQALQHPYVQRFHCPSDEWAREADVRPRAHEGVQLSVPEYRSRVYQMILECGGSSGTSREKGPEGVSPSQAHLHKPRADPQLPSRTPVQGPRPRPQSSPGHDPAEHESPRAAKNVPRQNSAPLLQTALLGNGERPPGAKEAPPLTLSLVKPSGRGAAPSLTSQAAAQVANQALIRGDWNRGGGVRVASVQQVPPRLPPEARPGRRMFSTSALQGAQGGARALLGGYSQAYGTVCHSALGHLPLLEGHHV
Chain of WEE2 (P0C1S8 whole entry): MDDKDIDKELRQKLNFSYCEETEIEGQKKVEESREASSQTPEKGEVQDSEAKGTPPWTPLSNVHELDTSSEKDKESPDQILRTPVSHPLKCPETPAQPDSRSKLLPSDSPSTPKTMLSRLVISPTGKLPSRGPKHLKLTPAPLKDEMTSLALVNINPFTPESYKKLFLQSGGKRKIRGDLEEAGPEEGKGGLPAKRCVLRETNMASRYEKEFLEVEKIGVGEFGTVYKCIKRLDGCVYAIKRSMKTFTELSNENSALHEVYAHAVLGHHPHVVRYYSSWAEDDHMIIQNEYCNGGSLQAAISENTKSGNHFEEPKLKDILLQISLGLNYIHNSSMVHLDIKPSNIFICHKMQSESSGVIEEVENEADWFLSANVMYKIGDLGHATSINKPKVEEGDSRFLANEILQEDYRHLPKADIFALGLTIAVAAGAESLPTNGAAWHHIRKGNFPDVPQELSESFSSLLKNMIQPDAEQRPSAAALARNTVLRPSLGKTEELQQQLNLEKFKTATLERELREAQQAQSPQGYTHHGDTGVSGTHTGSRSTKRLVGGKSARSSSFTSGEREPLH
Chain of FLT1 (P17948 whole entry): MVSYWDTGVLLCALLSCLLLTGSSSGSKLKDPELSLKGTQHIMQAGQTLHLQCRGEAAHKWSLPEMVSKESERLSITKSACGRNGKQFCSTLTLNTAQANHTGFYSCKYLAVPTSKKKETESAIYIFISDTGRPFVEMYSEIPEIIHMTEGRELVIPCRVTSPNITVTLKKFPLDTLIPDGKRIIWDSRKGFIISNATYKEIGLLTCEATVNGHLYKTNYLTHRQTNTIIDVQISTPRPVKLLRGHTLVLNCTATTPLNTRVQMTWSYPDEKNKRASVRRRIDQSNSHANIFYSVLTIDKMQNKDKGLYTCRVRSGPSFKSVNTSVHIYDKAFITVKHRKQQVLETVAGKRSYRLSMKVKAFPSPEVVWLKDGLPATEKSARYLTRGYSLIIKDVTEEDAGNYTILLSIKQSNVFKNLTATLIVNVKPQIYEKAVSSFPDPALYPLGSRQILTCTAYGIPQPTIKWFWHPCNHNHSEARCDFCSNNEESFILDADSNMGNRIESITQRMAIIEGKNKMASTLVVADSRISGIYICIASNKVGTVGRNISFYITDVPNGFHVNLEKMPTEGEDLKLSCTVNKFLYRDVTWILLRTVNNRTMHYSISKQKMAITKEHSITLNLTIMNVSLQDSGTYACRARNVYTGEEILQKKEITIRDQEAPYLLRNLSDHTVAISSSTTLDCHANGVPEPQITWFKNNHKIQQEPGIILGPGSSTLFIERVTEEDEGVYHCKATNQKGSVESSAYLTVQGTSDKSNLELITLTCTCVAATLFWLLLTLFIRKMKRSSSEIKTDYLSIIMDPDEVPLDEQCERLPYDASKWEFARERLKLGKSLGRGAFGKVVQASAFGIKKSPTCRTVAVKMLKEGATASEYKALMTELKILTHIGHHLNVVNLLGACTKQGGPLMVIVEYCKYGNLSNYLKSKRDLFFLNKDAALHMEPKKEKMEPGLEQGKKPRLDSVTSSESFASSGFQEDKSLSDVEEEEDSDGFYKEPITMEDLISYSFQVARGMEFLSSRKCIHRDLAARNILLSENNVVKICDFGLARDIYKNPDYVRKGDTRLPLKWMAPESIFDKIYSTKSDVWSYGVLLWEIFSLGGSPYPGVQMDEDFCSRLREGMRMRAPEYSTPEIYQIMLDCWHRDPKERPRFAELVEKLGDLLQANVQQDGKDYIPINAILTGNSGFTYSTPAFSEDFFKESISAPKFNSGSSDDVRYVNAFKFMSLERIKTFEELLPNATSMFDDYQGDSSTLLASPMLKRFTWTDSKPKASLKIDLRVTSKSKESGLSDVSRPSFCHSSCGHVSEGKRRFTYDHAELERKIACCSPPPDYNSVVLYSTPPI
Chain of MAK (P20794 whole entry): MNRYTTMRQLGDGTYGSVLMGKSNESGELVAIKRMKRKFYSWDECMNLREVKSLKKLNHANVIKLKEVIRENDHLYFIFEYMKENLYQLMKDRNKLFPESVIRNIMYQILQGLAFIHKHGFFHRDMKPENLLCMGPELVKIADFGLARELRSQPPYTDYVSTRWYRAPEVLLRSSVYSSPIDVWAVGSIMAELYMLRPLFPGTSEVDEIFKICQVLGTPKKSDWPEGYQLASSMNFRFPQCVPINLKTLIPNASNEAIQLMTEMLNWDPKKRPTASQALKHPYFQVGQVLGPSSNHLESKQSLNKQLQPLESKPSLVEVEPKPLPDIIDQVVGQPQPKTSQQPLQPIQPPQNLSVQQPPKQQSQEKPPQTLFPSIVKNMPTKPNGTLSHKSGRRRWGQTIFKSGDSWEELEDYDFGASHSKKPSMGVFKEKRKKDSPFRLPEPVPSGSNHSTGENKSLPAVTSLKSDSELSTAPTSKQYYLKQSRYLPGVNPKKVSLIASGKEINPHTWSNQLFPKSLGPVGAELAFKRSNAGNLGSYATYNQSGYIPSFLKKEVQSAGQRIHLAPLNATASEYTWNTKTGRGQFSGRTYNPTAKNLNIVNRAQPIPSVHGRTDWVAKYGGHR
Chain of CSNK1G1 (Q9HCP0 whole entry): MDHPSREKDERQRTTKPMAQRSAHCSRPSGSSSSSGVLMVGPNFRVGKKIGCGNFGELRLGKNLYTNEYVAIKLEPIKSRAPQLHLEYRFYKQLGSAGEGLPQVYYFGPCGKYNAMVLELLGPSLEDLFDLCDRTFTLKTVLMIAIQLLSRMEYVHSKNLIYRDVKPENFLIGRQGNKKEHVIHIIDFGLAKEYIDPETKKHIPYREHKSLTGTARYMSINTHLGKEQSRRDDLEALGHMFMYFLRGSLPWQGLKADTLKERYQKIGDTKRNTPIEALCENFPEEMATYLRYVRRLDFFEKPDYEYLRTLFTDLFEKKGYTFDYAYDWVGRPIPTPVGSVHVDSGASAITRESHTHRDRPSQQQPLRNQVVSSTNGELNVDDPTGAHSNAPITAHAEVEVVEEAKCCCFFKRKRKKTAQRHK

In the case of `C=C(C)[C@H]1CC=C(C)C(=O)C1` [S-carvone], the remaining binding at 100 µM at IRAK3 stood at 100%; at SRMS it was 76%; on PCTK2, 97%; on KIT(V559D,T670I), 91%; at PRKCH, 73%; at WEE2, 88%. Moreover, the remaining binding at 100 µM at RIPK2 amounted to 97%; at PIP5K2B it was 100%; on EGFR(S752-I759del), 66%; on CSNK1G1, 100%; on FLT1, 91%; at MELK it was 99%. Also, the remaining binding at 100 µM on RET(M918T) turned out to be 93%; on VPS34, 64%; on EPHA8, 91%; on ERK8, 91%; at MST1R, 65%; at MAK it was 73%. The values for the remaining binding at 100 µM (on GRK4; in experiment [1]; on PRKD3) were 66%, 67% and 92%, respectively.

The values above are taken from paper PMC10174618, “Monoterpenoid aryl hydrocarbon receptor allosteric antagonists protect against ultraviolet skin damage in female mice” (Nature Communications, 2023).
